Where “and” joins values, the source holds several entries; their conditions need not be identical. Identical values can stand only once. Entries after “also recorded” stand apart in the source; their conditions may differ. Like-named read-outs stand apart in the source and are kept apart here.
Key:
[1] = system: primary murine tubular cells; test: RSL3-induced LDH release of primary kidney tubular cells; type: cell-based; settings: RSL3 14 h; for Effect on RSL3-induced LDH release: primary renal tubular cells
Description: (§1) The LDH release of cells or of freshly isolated kidney tubules was measured according to manufacturers’ instructions at indicated time points. In brief, an aliquot of the supernatant was taken and Lysis Solution was added for 45 min to induce maximal LDH release before another aliquot of the supernatant was taken. Subsequently, the supernatants were incubated with CytoTox 96® Reagent for 15 min protected from light at room temperature before adding Stop Solution. Absorbance was measured at 490 nm.
Generation, cell culture, and induction of cell death in primary murine tubular cells. Murine tubular cells were generated by outgrowth from isolated renal tubules (see above). Primary murine tubules were placed in six-well plates containing Dulbecco’s Modified Eagle Medium F-12 Nutrient Mixture without phenol red (DMEM/F12, Thermo Fisher), supplemented with 0.01 mg/ml recombinant human insulin, 5.5 μg/ml human transferrin, 0.005 μg/ml Na2SeO3 (ITS without linoleic acid, Sigma Aldrich), 50 nM hydrocortisone, 100 U/ml penicillin, and 100 μg/ml streptomycin (Pen/Strep, Thermo Fisher). After two days, the outgrown primary murine tubular cells were washed with PBS and a fresh medium was added. When the number of primary murine tubular cells reached approximately 50% confluence, the cells were removed from the six-well plates using Trypsin-EDTA (Thermo Fisher), washed with medium and a Ficoll Paque Plus (Sigma Aldrich) gradient was performed to remove any dead cells, and debris from the murine renal tubules. Cells were washed twice with PBS and seeded in six-well plates with medium. Once the number of grown cells reached approximately 50% confluence, they were washed with PBS and treated with type 2 FIN: RSL3 (also see Supplementary Table 2 for details). After 14 h, medium and cells were collected and prepared for LDH release assay. Images of the treated primary murine tubular cells were obtained using a 20×/0.30 PH1 objective on a Leica DMi1 microscope.

[2] = system: freshly isolated primary murine renal tubules; test: RSL3-induced LDH release of freshly isolated kidney tubules; type: cell-based; settings: RSL3 2 h; for LDH release: freshly isolated kidney tubules, 5 mM glycine, alone (DMSO) or with Fer-1 or Nec-1f; for Effect on RSL3-induced LDH release: freshly isolated tubules, glycine medium
Description: as §1
Primary murine renal tubules were isolated following a modified previously established protocol. […] Kidney slices of each kidney were transferred in 2 ml reaction tube containing 2 mg/ml collagenase type II in incubation solution (48 μg/ml trypsin inhibitor, 25 μg/ml DNAse I, 140 mM NaCl, 0.4 mM KH2PO4, 1.6 mM K2HPO4 · 3 H2O, 1 mM MgSO4 · 7 H2O, 10 mM CH3COONa · 3 H2O, 1 mM α-ketoglytarate and 1.3 mM Ca-gluconate) and digested for 5 min at 37 °C, 850 rpm. Due to the presence of damaged tubules, the first resulting supernatant was discarded and 1 ml of 2 mg/ml collagenase type II in incubation solution was added to the kidney slices and digested for 5 min at 37 °C, 850 rpm. The supernatant was collected and transferred in a 2 ml reaction tube containing 1 ml ice-cold sorting solution (0.5 mg/ml bovine albumin in incubation solution). The reaction tubes were left on ice for the tubules to precipitate. The supernatant was removed and the tubules were washed twice with ice-cold incubation solution. Once the tubules precipitated the supernatant was removed and the ice-cold sorting solution was added (the volume was adjusted depending on the number of samples needed for the experiment). Tubules were distributed in a twenty-four-well plate containing Dulbecco’s Modified Eagle Medium F-12 Nutrient Mixture without phenol red (DMEM/F12, Thermo Fisher), supplemented with 0.01 mg/ml recombinant human insulin, 5.5 μg/ml human transferrin, 0.005 μg/ml sodium selenite (Na2SeO3) (ITS without linoleic acid, Sigma Aldrich), 50 nM hydrocortisone, 100 U/ml penicillin, and 100 μg/ml streptomycin (Pen/Strep, Thermo Fisher).
All of the experiments performed contain a negative control to assess LDH release at 0 h of incubation as a quality control. No more than 10% LDH release in these negative controls was tolerated. […] Isolated murine renal tubules were placed in twenty four-well plates containing the respective agents diluted in Dulbecco’s Modified Eagle Medium F-12 Nutrient Mixture without phenol red (DMEM/F12, Thermo Fisher), supplemented with 0.01 mg/ml recombinant human insulin, 5.5 μg/ml human transferrin, 0.005 μg/ml Na2SeO3 (ITS without linoleic acid, Sigma Aldrich), 50 nM hydrocortisone, 100 U/ml penicillin, and 100 μg/ml streptomycin (Pen/Strep, Thermo Fisher). […]

C57Bl/6 N mice = test: Bilateral kidney ischemia-reperfusion injury, severe model (38 min ischemia), survival; settings: single dose 2 mg/kg body weight before reperfusion
[3] = biological target: Potassium Channel hERG (human) (Homo sapiens, UniProt Q12809); test: Off-target radioligand binding screen; settings: Nec-1f 10 µM
ETA(h) = ETA(h) (Homo sapiens, UniProt P25101); test: Off-target radioligand binding screen; settings: read-out: ETA(h) (#): inhibition of radioligand binding
D2S(h) = D2S(h) (Homo sapiens, UniProt P14416); test: Off-target radioligand binding screen; settings: read-out: D2S(h) (#): inhibition of radioligand binding
[4] = biological target: norepinephrine transporter(h) (Homo sapiens, UniProt P23975); test: Off-target radioligand binding screen; settings: read-out: norepinephrine transporter(h) ($): inhibition of radioligand binding
α2A(h) = α2A(h) (Homo sapiens, UniProt P08913); test: Off-target radioligand binding screen; settings: read-out: α2A(h) ($): inhibition of radioligand binding
dopamine transporter(h) = dopamine transporter(h) (Homo sapiens, UniProt Q01959); test: Off-target radioligand binding screen; settings: read-out: dopamine transporter(h) ($): inhibition of radioligand binding
[5] = both, microsomes, 2 µM, pH 7.4
5-HT1B (h) = 5-HT1B (h) (Homo sapiens, UniProt P28222); test: Off-target radioligand binding screen; settings: read-out: 5-HT1B (h) ($): inhibition of radioligand binding
5-HT2A(h) = 5-HT2A(h) (Homo sapiens, UniProt P28223); test: Off-target radioligand binding screen; settings: read-out: 5-HT2A(h) (#): inhibition of radioligand binding
Sequence of 5-HT2A(h) (P28223 whole entry): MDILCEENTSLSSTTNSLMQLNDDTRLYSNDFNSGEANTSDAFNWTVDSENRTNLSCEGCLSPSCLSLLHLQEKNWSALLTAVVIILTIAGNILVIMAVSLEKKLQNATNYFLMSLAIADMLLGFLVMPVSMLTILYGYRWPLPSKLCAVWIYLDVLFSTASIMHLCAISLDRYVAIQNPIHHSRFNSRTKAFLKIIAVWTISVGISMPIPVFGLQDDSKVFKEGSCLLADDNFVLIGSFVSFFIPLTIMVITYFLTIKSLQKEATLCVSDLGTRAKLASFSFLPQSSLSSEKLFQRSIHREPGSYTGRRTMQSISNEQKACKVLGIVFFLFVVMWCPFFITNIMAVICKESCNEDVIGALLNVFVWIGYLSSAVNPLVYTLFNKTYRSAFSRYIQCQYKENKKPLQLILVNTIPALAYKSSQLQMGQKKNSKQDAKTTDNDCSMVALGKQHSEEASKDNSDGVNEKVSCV

Sequence of dopamine transporter(h) (Q01959 whole entry): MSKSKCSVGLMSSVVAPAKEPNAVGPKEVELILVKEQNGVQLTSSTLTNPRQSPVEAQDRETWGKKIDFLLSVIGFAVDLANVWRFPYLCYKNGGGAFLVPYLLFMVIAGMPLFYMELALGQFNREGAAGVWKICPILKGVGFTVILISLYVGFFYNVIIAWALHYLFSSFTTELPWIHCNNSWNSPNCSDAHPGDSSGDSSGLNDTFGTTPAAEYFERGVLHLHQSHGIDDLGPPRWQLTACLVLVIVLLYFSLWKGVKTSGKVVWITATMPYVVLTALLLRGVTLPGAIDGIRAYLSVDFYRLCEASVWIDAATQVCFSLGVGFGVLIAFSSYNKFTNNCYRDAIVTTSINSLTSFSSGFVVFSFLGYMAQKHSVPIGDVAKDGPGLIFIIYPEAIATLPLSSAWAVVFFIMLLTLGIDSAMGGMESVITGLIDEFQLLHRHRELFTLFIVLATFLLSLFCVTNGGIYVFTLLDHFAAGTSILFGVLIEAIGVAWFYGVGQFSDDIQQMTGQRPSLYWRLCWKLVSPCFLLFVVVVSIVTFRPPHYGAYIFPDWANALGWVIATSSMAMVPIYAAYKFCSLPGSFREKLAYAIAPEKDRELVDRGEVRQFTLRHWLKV
Sequence of 5-HT1B (h) (P28222 whole entry): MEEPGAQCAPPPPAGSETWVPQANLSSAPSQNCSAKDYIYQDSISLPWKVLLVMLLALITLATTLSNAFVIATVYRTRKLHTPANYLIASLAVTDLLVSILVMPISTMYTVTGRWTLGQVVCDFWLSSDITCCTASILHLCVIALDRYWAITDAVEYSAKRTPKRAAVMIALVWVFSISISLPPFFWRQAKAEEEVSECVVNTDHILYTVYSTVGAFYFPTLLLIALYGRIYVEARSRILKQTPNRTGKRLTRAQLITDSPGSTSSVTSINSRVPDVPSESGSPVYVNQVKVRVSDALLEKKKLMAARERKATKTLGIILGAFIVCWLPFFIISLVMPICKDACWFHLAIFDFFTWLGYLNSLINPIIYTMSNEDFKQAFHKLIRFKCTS
Sequence of ETA(h) (P25101 21-427): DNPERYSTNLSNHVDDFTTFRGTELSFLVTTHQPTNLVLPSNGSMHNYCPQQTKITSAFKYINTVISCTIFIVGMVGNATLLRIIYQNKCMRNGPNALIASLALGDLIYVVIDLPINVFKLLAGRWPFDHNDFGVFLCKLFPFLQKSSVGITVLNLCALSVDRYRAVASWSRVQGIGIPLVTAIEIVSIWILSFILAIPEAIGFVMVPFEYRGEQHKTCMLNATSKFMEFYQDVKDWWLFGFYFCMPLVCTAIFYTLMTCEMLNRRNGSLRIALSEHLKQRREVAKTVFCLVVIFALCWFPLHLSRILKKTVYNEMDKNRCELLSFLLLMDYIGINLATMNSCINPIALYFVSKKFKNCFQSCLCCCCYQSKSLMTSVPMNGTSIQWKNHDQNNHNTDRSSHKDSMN
Sequence of α2A(h) (P08913 whole entry): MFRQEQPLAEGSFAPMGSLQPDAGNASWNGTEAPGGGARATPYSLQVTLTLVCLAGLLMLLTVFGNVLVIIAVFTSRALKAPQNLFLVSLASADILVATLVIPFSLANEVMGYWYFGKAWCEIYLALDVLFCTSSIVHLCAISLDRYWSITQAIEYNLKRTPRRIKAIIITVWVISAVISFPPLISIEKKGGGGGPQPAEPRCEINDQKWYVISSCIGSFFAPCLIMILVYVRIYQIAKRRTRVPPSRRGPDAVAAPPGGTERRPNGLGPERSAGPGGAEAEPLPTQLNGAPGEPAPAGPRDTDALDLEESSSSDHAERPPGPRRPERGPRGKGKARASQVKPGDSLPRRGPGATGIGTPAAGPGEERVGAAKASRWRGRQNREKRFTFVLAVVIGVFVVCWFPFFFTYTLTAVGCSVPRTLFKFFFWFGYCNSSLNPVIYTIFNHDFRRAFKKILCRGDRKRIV
Sequence of norepinephrine transporter(h) (P23975 whole entry): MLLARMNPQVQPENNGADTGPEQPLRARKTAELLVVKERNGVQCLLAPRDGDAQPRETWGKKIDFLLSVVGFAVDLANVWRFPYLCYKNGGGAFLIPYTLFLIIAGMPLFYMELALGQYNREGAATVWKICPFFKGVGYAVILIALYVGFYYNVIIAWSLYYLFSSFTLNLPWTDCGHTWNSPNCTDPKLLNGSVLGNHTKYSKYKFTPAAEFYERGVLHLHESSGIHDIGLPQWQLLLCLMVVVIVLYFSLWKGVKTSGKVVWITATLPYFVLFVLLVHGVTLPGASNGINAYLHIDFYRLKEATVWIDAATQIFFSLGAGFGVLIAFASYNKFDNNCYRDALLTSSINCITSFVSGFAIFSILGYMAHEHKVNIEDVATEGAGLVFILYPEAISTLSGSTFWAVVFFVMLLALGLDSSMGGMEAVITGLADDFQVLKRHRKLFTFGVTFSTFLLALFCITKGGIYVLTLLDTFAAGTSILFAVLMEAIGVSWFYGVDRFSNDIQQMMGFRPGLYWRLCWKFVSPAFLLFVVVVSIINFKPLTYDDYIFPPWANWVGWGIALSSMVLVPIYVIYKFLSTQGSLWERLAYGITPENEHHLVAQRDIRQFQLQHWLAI
Sequence of Potassium Channel hERG (human) (Q12809 whole entry): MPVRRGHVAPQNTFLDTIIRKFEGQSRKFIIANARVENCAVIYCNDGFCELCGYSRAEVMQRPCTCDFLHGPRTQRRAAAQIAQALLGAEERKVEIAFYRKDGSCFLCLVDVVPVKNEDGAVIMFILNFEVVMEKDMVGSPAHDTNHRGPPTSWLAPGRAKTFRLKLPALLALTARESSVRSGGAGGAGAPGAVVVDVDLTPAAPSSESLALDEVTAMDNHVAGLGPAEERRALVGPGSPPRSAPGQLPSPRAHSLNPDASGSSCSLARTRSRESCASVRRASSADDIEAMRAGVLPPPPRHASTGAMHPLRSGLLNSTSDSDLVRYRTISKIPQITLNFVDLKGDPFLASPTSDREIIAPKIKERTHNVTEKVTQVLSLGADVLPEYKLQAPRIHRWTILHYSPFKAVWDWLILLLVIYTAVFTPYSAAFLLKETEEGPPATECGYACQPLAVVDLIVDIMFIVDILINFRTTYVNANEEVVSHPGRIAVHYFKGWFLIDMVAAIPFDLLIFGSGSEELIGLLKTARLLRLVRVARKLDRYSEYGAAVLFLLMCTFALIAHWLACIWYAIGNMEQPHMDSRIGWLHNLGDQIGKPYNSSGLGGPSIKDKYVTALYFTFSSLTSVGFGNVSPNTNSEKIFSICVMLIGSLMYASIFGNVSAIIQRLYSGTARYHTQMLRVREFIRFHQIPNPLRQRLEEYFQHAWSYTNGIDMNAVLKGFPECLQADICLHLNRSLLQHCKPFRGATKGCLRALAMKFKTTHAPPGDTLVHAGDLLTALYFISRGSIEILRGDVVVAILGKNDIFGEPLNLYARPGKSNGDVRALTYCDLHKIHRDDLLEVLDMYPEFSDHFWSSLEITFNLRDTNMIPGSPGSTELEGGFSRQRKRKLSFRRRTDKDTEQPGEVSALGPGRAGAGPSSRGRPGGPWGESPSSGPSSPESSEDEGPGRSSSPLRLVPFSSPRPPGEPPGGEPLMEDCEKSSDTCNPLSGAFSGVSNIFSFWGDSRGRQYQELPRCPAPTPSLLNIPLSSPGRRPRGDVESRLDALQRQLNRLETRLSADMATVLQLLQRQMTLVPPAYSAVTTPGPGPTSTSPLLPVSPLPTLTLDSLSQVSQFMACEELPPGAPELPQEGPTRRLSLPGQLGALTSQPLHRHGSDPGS
Sequence of D2S(h) (P14416 1-414 isoform P14416-2): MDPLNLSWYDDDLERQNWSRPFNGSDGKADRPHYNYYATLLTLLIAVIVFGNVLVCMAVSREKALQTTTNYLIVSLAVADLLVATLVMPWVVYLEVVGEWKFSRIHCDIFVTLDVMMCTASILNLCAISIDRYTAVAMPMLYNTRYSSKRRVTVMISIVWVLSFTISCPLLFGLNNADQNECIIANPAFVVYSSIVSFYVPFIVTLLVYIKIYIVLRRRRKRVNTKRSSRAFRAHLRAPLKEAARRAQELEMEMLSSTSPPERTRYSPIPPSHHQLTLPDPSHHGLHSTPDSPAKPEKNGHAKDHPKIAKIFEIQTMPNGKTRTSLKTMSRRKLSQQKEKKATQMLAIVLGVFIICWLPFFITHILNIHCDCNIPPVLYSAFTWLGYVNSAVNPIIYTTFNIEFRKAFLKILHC

| SMILES | Effect on RSL3-induced LDH release [1] | LDH release [2] | Effect on RSL3-induced LDH release [2] | Survival after severe renal IRI vs vehicle (Kaplan-Meier, words) (C57Bl/6 N mice) | Potassium Channel hERG (human)- [3H] Dofetilide: inhibition of radioligand binding [3] [%] | inhibition at 10 µM (ETA(h)) [%] | inhibition at 10 µM (D2S(h)) [%] | inhibition at 10 µM [4] [%] | inhibition at 10 µM (α2A(h)) [%] | inhibition at 10 µM (dopamine transporter(h)) [%] | Human microsomal stability, parent compound remaining ([5]; 0 h) [%] | Human microsomal stability, parent compound remaining ([5]; 7 min) [%] | Human microsomal stability, parent compound remaining ([5]; 0.25 h) [%] | Human microsomal stability, parent compound remaining ([5]; 25 min) [%] | Human microsomal stability, parent compound remaining ([5]; 40 min) [%] | LDH release ([1]; primary kidney tubular cells, alone (DMSO) or with Fer-1 or Nec-1f 30 µM) | inhibition at 10 µM (5-HT1B (h)) [%] | inhibition at 10 µM (5-HT2A(h)) [%] |
| --- | --- | --- | --- | --- | --- | --- | --- | --- | --- | --- | --- | --- | --- | --- | --- | --- | --- | --- |
| CCOC(=O)c1ccc(NC2CCCCC2)c(N)c1 [Fer-1, ferrostatin-1] | prevented; also recorded: complete reversal of LDH release | 22.94% and 23.84% and 16.99% | significantly attenuated | not statistically significant | – | – | – | – | – | – | – | – | – | – | – | – | – | – |
| CN1C(=O)C(Cc2c[nH]c3c(Cl)cccc23)NC1=S (stereo not shown) [Nec-1f] | prevented | 18.43% and 23.14% and 28.56% | reduction of LDH release; also recorded: significantly attenuated | significantly higher | -2.7 | 0.9 | 4.8 | 7.3 | -2 | 34.3 | 100 | 80 | 65 | 48 | 34 | 29.82% and 33.38% and 28.13% | -12.9 | -2.8 |

Reference: publication PMC8292346, “Dysfunction of the key ferroptosis-surveilling systems hypersensitizes mice to tubular necrosis during acute kidney injury” (Nature Communications, 2021)
